Measurements taken from patent publication US20150175655A1 (priority 2012, published 2015).

These compounds were tested against T1, NS3 genotype 3a protease (UniProt Q81258) (assay: Ki determination, NS3 protease genotype 3a (fluorogenic depsipeptide substrate)). Details: 200 pM enzyme, 20 μM NS4A peptide, 2 μM substrate, read-out: Ki 3A.
T1 construct: Purified NS3 protease domain (amino acids 1-181) of the genotype 1b and 3a virus were generated as above; fused on or other part: N-terminal hexahistidine tag and rTEV protease cleavage site (vector p28-N6H-Tev-NS3(181)3)
T1 sequence (Q81258 1033-1663): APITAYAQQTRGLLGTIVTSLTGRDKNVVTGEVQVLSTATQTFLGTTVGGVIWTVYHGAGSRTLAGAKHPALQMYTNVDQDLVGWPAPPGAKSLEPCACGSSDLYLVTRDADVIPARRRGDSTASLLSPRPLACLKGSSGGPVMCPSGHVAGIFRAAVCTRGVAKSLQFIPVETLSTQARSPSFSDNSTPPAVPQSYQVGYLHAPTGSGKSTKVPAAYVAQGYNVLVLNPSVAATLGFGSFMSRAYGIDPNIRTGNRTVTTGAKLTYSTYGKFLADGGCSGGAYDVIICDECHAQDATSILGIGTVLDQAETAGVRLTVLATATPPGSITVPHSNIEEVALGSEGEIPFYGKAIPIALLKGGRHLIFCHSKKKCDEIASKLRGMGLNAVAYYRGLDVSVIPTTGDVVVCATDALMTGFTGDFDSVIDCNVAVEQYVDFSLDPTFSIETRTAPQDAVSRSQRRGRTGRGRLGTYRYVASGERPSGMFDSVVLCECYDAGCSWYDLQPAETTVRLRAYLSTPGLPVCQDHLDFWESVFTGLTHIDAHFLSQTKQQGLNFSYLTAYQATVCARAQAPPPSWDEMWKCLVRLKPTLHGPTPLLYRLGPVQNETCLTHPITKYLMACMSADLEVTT
Assay type: biochemical, hepatitis C virus
In short: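 Refolded His-tagged NS3 protease domain (aa 1-181, genotype 3a) at 200 pM with 20 μM NS4A peptide was pre-incubated 1 h at RT with inhibitor (100 nM–5 pM, 3-fold), then 2 μM FRET depsipeptide substrate was added in HEPES/40% glycerol/10% DMSO buffer. Steady-state rates over 90-120 min (ex 340/em 490 nm) versus inhibitor concentration gave Ki.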

Row | SMILES | Ki [nM]
1 | CC[C@@H]1[C@@H]2CN(C(=O)[C@H](C(C)(C)C)NC(=O)O[C@@H]3CCC[C@H]3CCCCCc3nc4ccc(OC)cc4nc3O2)[C@@H]1C(=O)N[C@]1(C(=O)NS(=O)(=O)C2(C)CC2)C[C@H]1C(F)F [Example 6, (3aR,7S,10S,11S,12R,24aR)-7-tert-butyl-N-[(1R,2R)-2-(difluoromethyl)-1-{[(1-methylcyclopropyl)sulfonyl]carbamoyl}cyclopropyl]-11-ethyl-16-methoxy-5,8-dioxo-1,2,3,3a,5,6,7,8,11,12,20,21,22,23,24,24a-hexadecahydro-10H-9,12-methanocyclopenta[18,19][1,10,3,6]dioxadiazacyclononadecino[11,12-b]quinoxaline-10-carboxamide] | 0.62
2 | CC[C@@H]1[C@@H]2CN(C(=O)[C@H](C(C)(C)C)NC(=O)O[C@@H]3C[C@H]3CCCCCc3nc4ccc(OC)cc4nc3O2)[C@@H]1C(=O)N[C@]1(C(=O)NS(=O)(=O)C2(C)CC2)C[C@H]1CC(F)F [Example 67, (1aR,5S,8S,9S,10R,22aR)-5-tert-butyl-N-[(1R,2S)-2-(2,2-difluoroethyl)-1-{[(1-methylcyclopropyl)sulfonyl]carbamoyl}cyclopropyl]-9-ethyl-14-methoxy-3,6-dioxo-1,1a,3,4,5,6,9,10,18,19,20,21,22,22a-tetradecahydro-8H-7,10-methanocyclopropa[18,19][1,10,3,6]dioxadiazacyclononadecino[11,12-b]quinoxaline-8-carboxamide] | 0.32
3 | CC[C@@H]1[C@@H]2CN(C(=O)[C@H](C(C)(C)C)NC(=O)O[C@]3(C)CCC[C@H]3CCCCCc3nc4ccc(OC)cc4nc3O2)[C@@H]1C(=O)N[C@]1(C(=O)NS(=O)(=O)C2CC2)C[C@H]1C(F)F [Example 40, (3aR,7S,10S,11S,12R,24aR)-7-tert-butyl-N-[(1R,2R)-1-[(cyclopropylsulfonyl)carbamoyl]-2-(difluoromethyl)cyclopropyl]-11-ethyl-16-methoxy-3a-methyl-5,8-dioxo-1,2,3,3a,5,6,7,8,11,12,20,21,22,23,24,24a-hexadecahydro-10H-9,12-methanocyclopenta[18,19][1,10,3,6]dioxadiazacyclononadecino[11,12-b]quinoxaline-10-carboxamide] | 0.18
4 | CC[C@@H]1[C@@H]2CN(C(=O)[C@H](C(C)(C)C)NC(=O)O[C@]3(C)CCC[C@H]3CCCCCc3nc4ccc(OC)cc4nc3O2)[C@@H]1C(=O)N[C@]1(C(=O)NS(=O)(=O)C2CC2)C[C@H]1CC [Example 51] | 0.84
5 | COc1ccc2nc3c(nc2c1)O[C@H]1CN(C(=O)[C@H](C(C)(C)C)NC(=O)O[C@@H]2CCC[C@H]2CCCCC3)[C@H](C(=O)N[C@]2(C(=O)NS(=O)(=O)C3CC3)C[C@H]2C(F)F)[C@@H]1C [Example 28, (3aR,7S,10S,11S,12R,24aR)-7-tert-butyl-N-[(1R,2R)-1-[(cyclopropylsulfonyl)carbamoyl]-2-(difluoromethyl)cyclopropyl]-16-methoxy-11-methyl-5,8-dioxo-1,2,3,3a,5,6,7,8,11,12,20,21,22,23,24,24a-hexadecahydro-10H-9,12-methanocyclopenta[18,19][1,10,3,6]dioxadiazacyclononadecino[11,12-b]quinoxaline-10-carboxamide] | 0.08
6 | CC[C@@H]1[C@@H]2CN(C(=O)[C@H](C(C)(C)C)NC(=O)O[C@@]3(C)C[C@@H]3CCCCCc3nc4ccc(OC)cc4nc3O2)[C@@H]1C(=O)N[C@]1(C(=O)NS(=O)(=O)C2(C)CC2)C[C@H]1C(F)F [Example 8, (1aS,5S,8S,9S,10R,22aS)-5-tert-butyl-N-[(1R,2R)-2-(difluoromethyl)-1-{[(1-methylcyclopropyl)sulfonyl]carbamoyl}cyclopropyl]-9-ethyl-14-methoxy-1a-methyl-3,6-dioxo-1,1a,3,4,5,6,9,10,18,19,20,21,22,22a-tetradecahydro-8H-7,10-methanocyclopropa[18,19][1,10,3,6]dioxadiazacyclononadecino[11,12-b]quinoxaline-8-carboxamide] | 0.42

Same assay, conditions: read-out: Ki 3A, 200 pM enzyme, 20 μM NS4A peptide, 2 μM substrate

Row | SMILES | Ki [nM]
7 | COc1ccc2nc3c(nc2c1)O[C@H]1CN(C(=O)[C@H](C(C)(C)C)NC(=O)O[C@@H]2C[C@H]2CCCCC3)[C@H](C(=O)N[C@]2(C(=O)NS(=O)(=O)C3(C)CC3)C[C@H]2CC(F)F)[C@@H]1C [Example 25, (1aR,5S,8S,9S,10R,22aR)-5-tert-butyl-N-[(1R,2S)-2-(2,2-difluoroethyl)-1-{[(1-methylcyclopropyl)sulfonyl]carbamoyl}cyclopropyl]-14-methoxy-9-methyl-3,6-dioxo-1,1a,3,4,5,6,9,10,18,19,20,21,22,22a-tetradecahydro-8H-7,10-methanocyclopropa[18,19][1,10,3,6]dioxadiazacyclononadecino[11,12-b]quinoxaline-8-carboxamide] | 0.39
8 | COc1ccc2nc3c(nc2c1)O[C@H]1CN(C(=O)[C@H](C(C)(C)C)NC(=O)O[C@@H]2C[C@H]2CCCCC3)[C@H](C(=O)N[C@]2(C(=O)NS(=O)(=O)C3(C)CC3)C[C@H]2CCF)[C@@H]1C [Example 23, (1aR,5S,8S,9S,10R,22aR)-5-tert-butyl-N-[(1R,2S)-2-(2-fluoroethyl)-1-{[(1-methylcyclopropyl)sulfonyl]carbamoyl}cyclopropyl]-14-methoxy-9-methyl-3,6-dioxo-1,1a,3,4,5,6,9,10,18,19,20,21,22,22a-tetradecahydro-8H-7,10-methanocyclopropa[18,19][1,10,3,6]dioxadiazacyclononadecino[11,12-b]quinoxaline-8-carboxamide] | 1.1
9 | COc1ccc2nc3c(nc2c1)O[C@H]1CN(C(=O)[C@H](C(C)(C)C)NC(=O)O[C@@H]2C[C@@H]4C[C@@H]4[C@H]2CCCCC3)[C@H](C(=O)N[C@]2(C(=O)NS(=O)(=O)C3CC3)C[C@H]2CC(F)F)[C@@H]1C [Example 57, (1aS,2aR,6S,9S,10S,11R,23aR,23bS)-6-tert-butyl-N-[(1R,2S)-1-[(cyclopropylsulfonyl)carbamoyl]-2-(2,2-difluoroethyl)cyclopropyl]-15-methoxy-10-methyl-4,7-dioxo-1a,2,2a,4,5,6,7,10,11,19,20,21,22,23,23a,23b-hexadecahydro-1H,9H-8,11-methanocyclopropa[4′,5′]cyclopenta[1′,2′:18,19][1,10,3,6]dioxadiazacyclononade cino[11,12-b]quinoxaline-9-carboxamide] | 0.28
10 | CC[C@@H]1[C@@H]2CN(C(=O)[C@H](C3CCCC3)NC(=O)O[C@@H]3C[C@H]3CCCCCc3nc4ccc(OC)cc4nc3O2)[C@@H]1C(=O)N[C@]1(C(=O)NS(=O)(=O)C2CC2)C[C@H]1C(F)F [Example 15, (1aR,5S,8S,9S,10R,22aR)-5-cyclopentyl-N-[(1R,2R)-1-[(cyclopropylsulfonyl)carbamoyl]-2-(difluoromethyl)cyclopropyl]-9-ethyl-14-methoxy-3,6-dioxo-1,1a,3,4,5,6,9,10,18,19,20,21,22,22a-tetradecahydro-8H-7,10-methanocyclopropa[18,19][1,10,3,6]dioxadiazacyclononadecino[11,12-b]quinoxaline-8-carboxamide] | 0.3
11 | C=C[C@@H]1C[C@]1(NC(=O)[C@@H]1[C@H](C)[C@@H]2CN1C(=O)[C@H](C(C)(C)C)NC(=O)O[C@@H]1C[C@H]1CCCCCc1nc3ccc(OC)cc3nc1O2)C(=O)NS(=O)(=O)C1CC1 [Example 48, (1aR,5S,8S,9S,10R,22aR)-5-tert-butyl-N-{(1R,2S)-1-[(cyclopropylsulfonyl)carbamoyl]-2-ethenylcyclopropyl}-14-methoxy-9-methyl-3,6-dioxo-1,1a,3,4,5,6,9,10,18,19,20,21,22,22a-tetradecahydro-8H-7,10-methanocyclopropa[18,19][1,10,3,6]dioxadiazacyclononadecino[11,12-b]quinoxaline-8-carboxamide] | 0.09
12 | CC[C@@H]1C[C@]1(NC(=O)[C@@H]1[C@H](C)[C@@H]2CN1C(=O)[C@H](C(C)(C)C)NC(=O)O[C@@H]1C[C@H]1CCCCCc1nc3ccc(OC)cc3nc1O2)C(=O)NS(=O)(=O)C1(C)CC1 [Example 21, (1aR,5S,8S,9S,10R,22aR)-5-tert-butyl-N-[(1R,2R)-2-ethyl-1-{[(1-methylcyclopropyl)sulfonyl]carbamoyl}cyclopropyl]-14-methoxy-9-methyl-3,6-dioxo-1,1a,3,4,5,6,9,10,18,19,20,21,22,22a-tetradecahydro-8H-7,10-methanocyclopropa[18,19][1,10,3,6]dioxadiazacyclononadecino[11,12-b]quinoxaline-8-carboxamide] | 0.45
